The values below are quoted from earlier work in patent US20240165002A1, “Compositions Incorporating Avobenzone Complexes” (University of Cincinnati, priority 2022, published 2024).

The conditions of data set [1]: at 360 nm.

With `COc1ccc(C(=O)CC(=O)c2ccc(C(C)(C)C)cc2)cc1` [Avobenzone, 1-(4-methoxyphenyl)-3-(4-tertbutylphenyl)-propane-1,3-dione], the “duration of photoprotection once exposed to sun” value (once exposed to sun) was 30 min. Moreover, the photostability result (upon exposure to light, keto-enol tautomerization) is listed as “poor photostability”. In addition, the molar absorption coefficient in data set [1] was 33,756 L/(mol·cm).
